Read-outs that look alike come from different tables or passages of the source.
Columns and labels:
[1] = system: Rabbit Skeletal myofibrils (rabbit psoas muscle); assay: Myofibril ATPase assay (PK/LDH NADH-coupled), skeletal myofibrils; format: biochemical
In short: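 Rabbit psoas myofibrils in pCa (PIPES/CaCl2/EGTA, pH 7.0) buffer; ADP coupled via PK/LDH to NADH loss, read at 340 nm every 1.5–2 min for 75 min. Slopes normalized to vehicle (100%) and fit to 4-parameter logistic for EC25, plus EC50 for inhibitors.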

[2] = system: isoflurane-anesthetized SD rats; assay: In vivo echocardiography of systolic cardiac performance (FS, SWT, HR, LV volumes) after a single oral dose; details: Rattus norvegicus, single dose 10 mg/kg PO, ~2 hrs post-dosing, vs. vehicle
Experimental: Experiments were performed to evaluate the in vivo ability of the compounds of the disclosure to modulate systolic cardiac performance. Non-invasively echocardiography was used to assess cardiac indicators in isoflurane-anesthetized SD rats. A set of conscious rats were treated with either vehicle control (0 mg/kg PO; n=78) or a single dose of an test compound (10 mg/kg PO, n=2 to 6/compound) via oral gavage. Cardiac function/geometry were recorded at two separate time-points/days: once prior to dosing (i.e., at baseline, day −2) and at ˜2 hrs post-dosing (day 0).
In these experiments, heart rate (HR), echocardiography-derived indices of left-ventricular systolic performance, as well as dimensions/volumes were measured using a high-frequency transducer and parastemnal long-axis transthoracic views (Vevo3100, VisualSonic). LV fractional shortening (FS), an index of systolic function, was defined as the end-diastole normalized change in internal dimensions divided by the […] (LVid) of the left ventricle between end-systole (LVids) and end-diastole (LVidd) (i.e., FS=100·[LVidd−LVids]/LVidd). LV volumes were derived using the Teichholz formula (LVV=7·LVid^3/[2.4+LVid]). In addition, a systolic wall-thickening index (SWT) was also evaluated. SWT is defined as the relative ratio (end-diastole normalized) of left-ventricular (anterior and posterior) wall-thickness change during systole; i.e., SWT=I{[(anterior LV wall thickness in systole−anterior LV wall thickness in diastole)][…][(posterior LV wall thickness in systole−posterior LV wall thickness in diastole)]}/{2*diastolic thickness}. In all cases, blood samples were taken (via either tail-vein micro-sampling or cardiac-puncture) at the time of each echocardiographic examination in order to establish pharmacokinetic (PK)/pharmacodynamics (PD) relationships.

[3] = EDV (LV volume, Teichholz formula), read-out: EDV % vs. VEH
[4] = LV fractional shortening, read-out: FS % vs. VEH
[5] = heart rate, read-out: HR % vs. VEH
[6] = systolic wall-thickening index, read-out: SWT % vs. VEH

Structure (SMILES)	Rabbit Psoas IC25 ([1]; Table 8)	change in vivo at 10 mg/kg [2, 3]	change in vivo at 10 mg/kg [2, 4]	change in vivo at 10 mg/kg [2, 5]	change in vivo at 10 mg/kg [2, 6]	Rabbit Psoas IC25 ([1]; Table 7)
N#Cc1cnc2c(c1)OCC2NC(=O)CN1Cc2c(ccc(F)c2F)NC1=O (single isomer, unassigned) [Compound B65]	19.1 nM	22%	-61%	22%	-53%	–
CC(NC(=O)CN1Cc2cc(F)ccc2NC1=O)c1ccc(C#N)cc1F (single isomer, unassigned) [Compound B206]	11.29 nM	29%	-67%	7%	-57%	–
C[C@@H](NC(=O)CN1Cc2c(ccc(F)c2F)NC1=O)c1ncc(C#N)cc1F [Compound B141, (R)—N-(1-(5-cyano-3-fluoropyridin-2-yl)ethyl)-2-(5,6-difluoro-2-oxo-1,4-dihydroquinazolin-3(2H)-yl)acetamide]	422.8 nM	-3%	-15%	13%	-19%	–
O=C(CN1Cc2cc(F)ccc2NC1=O)N[C@@H]1COc2cc(F)cc(F)c21 [Compound B145]	11.6 nM	11%	-42%	7%	-39%	–
O=C(CN1Cc2c(ccc(F)c2F)NC1=O)N[C@@H]1COc2cc(F)cc(F)c21 [Compound B147]	16.23 nM	10%	-35%	10%	-37%	–
C[C@H](NC(=O)CN1Cc2c(ccc(F)c2F)NC1=O)c1ccc(C#N)cc1F [Compound B189]	18.79 nM	19%	-13%	-5%	-29%	–
C[C@H](NC(=O)CN1Cc2c(ccc(F)c2F)NC1=O)c1ncc(F)cc1F [Compound B191]	20.19 nM	9%	-59%	17%	-59%	–
C[C@H](NC(=O)CN1Cc2cc(F)ccc2NC1=O)c1ncc(C#N)cc1F [Compound B199]	39.4 nM	11%	-54%	22%	-55%	–
C[C@H](NC(=O)CN1Cc2cc(F)ccc2NC1=O)c1ccc(F)cc1F [Compound B247, N-[(1S)-1-(2,4-Difluorophenyl)ethyl]-2-(6-fluoro-2-oxo-1,4-dihydroquinazolin-3-yl)acetamide]	32.05 nM	7%	-31%	7%	-35%	–
O=C(CN1C(=O)Nc2cccnc2C12CC2)N[C@@H]1COc2cc(F)cc(F)c21 [Compound N33]	–	2%	-10%	6%	-5%	19.37 nM

From US12509431B2, “1,4-dihydroquinazolinone compounds and uses thereof” (Edgewise Therapeutics, Inc., priority 2022, dated 2025)
